Source: article PMC12147761 (Journal of medicinal chemistry, 2025)
Where two headings read alike, the source gives them in different places.

What was measured:
[1] = target: T1, CDK3/CycE1 (Homo sapiens, UniProt Q00526); experiment: CDK family panel, ADP-Glo; format: biochemical
T1 construct: ICE Bioscience Inc. (assay service)
Method: (§2) All the kinase activity were performed using an ADP-Glo kinase assay by ICE Bioscience Inc. (Beijing, China). Kinome selectivity profiles (KINOMEscan profiling) and Kd detection were performed by Eurofins DiscoveryX Corporation (San Diego, CA, USA).

[2] = Pharmacokinetics study in mice; format: in vivo, ICR mice; details: for AUC(0-t) / Cmax / Tmax / clearance / half-life / bioavailability: both sexes, ICR, mouse, plasma
[3] = target: T2, CDK7/CycH/MAT1 (Homo sapiens, UniProt P50613); experiment: CDK family panel, ADP-Glo; format: biochemical
T2 construct: ICE Bioscience Inc. (assay service)
T2 sequence (P50613 whole entry, species assumed): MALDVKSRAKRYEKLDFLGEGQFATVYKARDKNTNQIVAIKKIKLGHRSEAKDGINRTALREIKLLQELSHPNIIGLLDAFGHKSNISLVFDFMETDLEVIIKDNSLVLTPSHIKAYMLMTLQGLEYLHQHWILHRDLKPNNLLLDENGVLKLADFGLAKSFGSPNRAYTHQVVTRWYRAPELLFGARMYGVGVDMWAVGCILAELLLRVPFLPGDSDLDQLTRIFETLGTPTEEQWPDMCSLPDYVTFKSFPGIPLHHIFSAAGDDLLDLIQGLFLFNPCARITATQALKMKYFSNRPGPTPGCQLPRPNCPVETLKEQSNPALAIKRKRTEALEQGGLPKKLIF
T2 sequence (P51946 whole entry partner, species assumed): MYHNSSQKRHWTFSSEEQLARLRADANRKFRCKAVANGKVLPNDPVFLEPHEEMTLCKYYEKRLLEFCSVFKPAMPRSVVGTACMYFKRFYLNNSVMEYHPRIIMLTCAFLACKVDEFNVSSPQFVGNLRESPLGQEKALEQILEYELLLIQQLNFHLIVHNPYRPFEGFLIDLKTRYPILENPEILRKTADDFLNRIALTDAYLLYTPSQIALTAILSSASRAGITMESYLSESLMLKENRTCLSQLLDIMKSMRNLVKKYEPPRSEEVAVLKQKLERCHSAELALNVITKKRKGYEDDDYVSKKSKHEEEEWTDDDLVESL
T2 sequence (P51948 whole entry partner, species assumed): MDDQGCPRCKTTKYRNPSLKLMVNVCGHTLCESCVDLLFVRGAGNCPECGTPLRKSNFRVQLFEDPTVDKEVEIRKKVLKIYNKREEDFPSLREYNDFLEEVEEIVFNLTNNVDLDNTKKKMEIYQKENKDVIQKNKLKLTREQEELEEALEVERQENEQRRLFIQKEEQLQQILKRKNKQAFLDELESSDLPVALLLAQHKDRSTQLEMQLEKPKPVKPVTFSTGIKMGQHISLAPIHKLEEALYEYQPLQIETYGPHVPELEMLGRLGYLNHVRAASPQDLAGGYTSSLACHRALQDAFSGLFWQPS
Method: (§3) All the kinase activity were performed using an ADP-Glo kinase assay by ICE Bioscience Inc. (Beijing, China).

[4] = target: T3, CDK2/CycA2 (Homo sapiens, UniProt P24941); experiment: CDK family panel, ADP-Glo; format: biochemical
T3 construct: ICE Bioscience Inc. (assay service)
Method: as §3

[5] = tested on: VCaP prostate cancer cells; experiment: Cell proliferation assay (CellTiter-Glo), VCaP; format: cell-based, human; details: cell growth inhibition, 5 days, CellTiter-Glo
Method: The kinase inhibitory activities of the compounds against CDK12 and CDK13 were preliminarily evaluated using the ADP-Glo kinase assay. Cell growth inhibition was determined in VCaP prostate cancer cells, which were characterized as being sensitive to CDK12/13 inhibition.[14]
(§1) Cells were seeded in 96-well plates and incubated at 37 °C and 5% CO2. After overnight incubation, serial dilutions of tested compounds were added to the plate. The assay was tested with Cell Titer-Glo (Promega) after 5 days. The luminescence signal was detected by the Infinite M1000 Pro plate reader (Tecan), and the IC50 values were calculated by GraphPad Prism 10.

[6] = tested on: VCaP cells; experiment: Washout experiment, cell growth; format: cell-based, human; details: VCaP cells treated 6 h, compound removed, 5 days in compound-free media
Method: The previously reported reversible inhibitor 10 was included for comparison. VCaP cells were treated with the compounds for 6 h, after which the compounds were removed, and the cells were cultured in compound-free media for 5 days.

[7] = target: T4, CDK5/p25NCK (Homo sapiens, UniProt Q00535); experiment: CDK family panel, ADP-Glo; format: biochemical
T4 construct: ICE Bioscience Inc. (assay service)
Method: as §3

[8] = target: T5, CDK2/CycE1 (Homo sapiens, UniProt P24941); experiment: CDK family panel, ADP-Glo; format: biochemical
T5 construct: ICE Bioscience Inc. (assay service)
Method: as §3

[9] = target: T6, CDK14/CycY (Homo sapiens, UniProt O94921); experiment: CDK family panel, ADP-Glo; format: biochemical
T6 construct: ICE Bioscience Inc. (assay service)
T6 sequence (O94921 whole entry, species assumed): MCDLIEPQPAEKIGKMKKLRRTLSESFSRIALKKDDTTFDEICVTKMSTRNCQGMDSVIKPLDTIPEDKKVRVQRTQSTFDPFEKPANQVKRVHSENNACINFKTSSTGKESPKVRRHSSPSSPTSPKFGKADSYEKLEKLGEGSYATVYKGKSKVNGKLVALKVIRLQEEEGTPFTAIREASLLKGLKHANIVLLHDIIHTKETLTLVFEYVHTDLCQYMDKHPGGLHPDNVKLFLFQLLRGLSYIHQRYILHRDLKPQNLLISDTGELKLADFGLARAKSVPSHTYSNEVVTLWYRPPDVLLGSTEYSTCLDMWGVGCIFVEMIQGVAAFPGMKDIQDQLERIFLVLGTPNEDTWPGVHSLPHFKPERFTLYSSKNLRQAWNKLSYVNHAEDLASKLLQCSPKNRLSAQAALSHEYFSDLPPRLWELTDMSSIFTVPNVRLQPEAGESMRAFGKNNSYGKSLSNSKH
T6 sequence (Q8ND76 whole entry partner, species assumed): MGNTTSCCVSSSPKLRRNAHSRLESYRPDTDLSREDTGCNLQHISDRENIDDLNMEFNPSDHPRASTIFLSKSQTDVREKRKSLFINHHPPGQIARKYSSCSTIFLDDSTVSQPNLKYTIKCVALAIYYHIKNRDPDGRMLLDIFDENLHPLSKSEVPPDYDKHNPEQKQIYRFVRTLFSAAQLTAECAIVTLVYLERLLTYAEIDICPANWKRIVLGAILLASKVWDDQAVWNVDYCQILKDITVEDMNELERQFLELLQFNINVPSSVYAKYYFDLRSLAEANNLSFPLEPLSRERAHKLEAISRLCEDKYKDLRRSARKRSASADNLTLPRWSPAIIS
Method: as §3

[10] = target: T7, CDK5/p35NCK (Homo sapiens, UniProt Q00535); experiment: CDK family panel, ADP-Glo; format: biochemical
T7 construct: ICE Bioscience Inc. (assay service)
Method: as §2

[11] = target: T8, CDK1/CycA2 (Homo sapiens, UniProt P06493); experiment: CDK family panel, ADP-Glo; format: biochemical
T8 construct: ICE Bioscience Inc. (assay service)
Method: as §3

[12] = target: T9, CDK6/CycD1 (Homo sapiens, UniProt Q00534); experiment: CDK family panel, ADP-Glo; format: biochemical
T9 construct: ICE Bioscience Inc. (assay service)
Method: as §2

[13] = target: T10, CDK3/CycC (Homo sapiens, UniProt Q00526); experiment: CDK family panel, ADP-Glo; format: biochemical
T10 construct: ICE Bioscience Inc. (assay service)
T10 sequence (Q00526 whole entry, species assumed): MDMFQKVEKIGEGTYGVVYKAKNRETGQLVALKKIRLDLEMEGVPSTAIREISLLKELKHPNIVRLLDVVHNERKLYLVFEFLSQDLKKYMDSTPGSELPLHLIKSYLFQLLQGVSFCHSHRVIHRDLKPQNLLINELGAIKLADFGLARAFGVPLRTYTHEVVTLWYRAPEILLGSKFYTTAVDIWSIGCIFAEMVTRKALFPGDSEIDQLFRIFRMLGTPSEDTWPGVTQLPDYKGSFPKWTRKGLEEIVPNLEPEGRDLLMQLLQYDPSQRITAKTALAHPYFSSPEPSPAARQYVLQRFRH
T10 sequence (P24863 whole entry partner, species assumed): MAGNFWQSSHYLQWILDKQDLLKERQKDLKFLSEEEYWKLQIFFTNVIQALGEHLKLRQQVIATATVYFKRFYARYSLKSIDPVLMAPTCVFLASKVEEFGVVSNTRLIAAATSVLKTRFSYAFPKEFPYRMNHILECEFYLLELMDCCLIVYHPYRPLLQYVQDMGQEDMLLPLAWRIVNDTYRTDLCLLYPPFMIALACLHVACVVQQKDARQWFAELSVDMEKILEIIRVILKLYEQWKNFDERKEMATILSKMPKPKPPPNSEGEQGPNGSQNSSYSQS
Method: as §3

[14] = target: T11, CDK15/CycY (Homo sapiens, UniProt Q96Q40); experiment: CDK family panel, ADP-Glo; format: biochemical
T11 construct: ICE Bioscience Inc. (assay service)
Method: as §3

[15] = target: T12, CDK9/CycT1 (Homo sapiens, UniProt P50750); experiment: CDK family panel, ADP-Glo; format: biochemical
T12 construct: ICE Bioscience Inc. (assay service)
T12 sequence (P50750 whole entry, species assumed): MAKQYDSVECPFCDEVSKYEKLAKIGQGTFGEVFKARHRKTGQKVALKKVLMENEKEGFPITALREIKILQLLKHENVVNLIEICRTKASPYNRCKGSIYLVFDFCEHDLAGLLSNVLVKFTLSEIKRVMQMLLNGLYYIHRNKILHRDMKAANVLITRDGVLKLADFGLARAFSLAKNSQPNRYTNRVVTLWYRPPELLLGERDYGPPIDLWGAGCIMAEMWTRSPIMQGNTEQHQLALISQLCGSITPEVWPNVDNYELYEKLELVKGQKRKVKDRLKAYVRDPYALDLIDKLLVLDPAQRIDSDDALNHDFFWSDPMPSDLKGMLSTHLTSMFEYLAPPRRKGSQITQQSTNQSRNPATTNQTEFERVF
T12 sequence (O60563 whole entry partner, species assumed): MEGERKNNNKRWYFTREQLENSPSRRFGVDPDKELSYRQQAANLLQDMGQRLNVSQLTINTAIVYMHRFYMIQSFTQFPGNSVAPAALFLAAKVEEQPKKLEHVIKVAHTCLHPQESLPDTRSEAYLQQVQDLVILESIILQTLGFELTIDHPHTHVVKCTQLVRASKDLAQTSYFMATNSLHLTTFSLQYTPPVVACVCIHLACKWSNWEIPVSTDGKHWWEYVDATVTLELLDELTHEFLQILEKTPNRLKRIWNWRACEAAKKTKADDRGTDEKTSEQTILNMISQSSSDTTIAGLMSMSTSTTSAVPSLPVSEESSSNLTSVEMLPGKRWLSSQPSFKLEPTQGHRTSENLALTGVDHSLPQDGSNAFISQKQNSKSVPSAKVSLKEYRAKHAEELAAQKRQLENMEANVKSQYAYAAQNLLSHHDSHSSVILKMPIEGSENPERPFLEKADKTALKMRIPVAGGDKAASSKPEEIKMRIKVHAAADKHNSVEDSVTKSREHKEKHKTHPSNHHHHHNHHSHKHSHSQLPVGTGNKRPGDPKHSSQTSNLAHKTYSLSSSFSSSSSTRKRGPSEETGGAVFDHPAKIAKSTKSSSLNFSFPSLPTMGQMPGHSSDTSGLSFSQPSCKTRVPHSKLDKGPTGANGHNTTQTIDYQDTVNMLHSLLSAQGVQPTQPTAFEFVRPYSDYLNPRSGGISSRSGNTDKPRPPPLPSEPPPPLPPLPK
Method: as §3

[16] = target: T13, CDK19/CycC (Homo sapiens, UniProt Q9BWU1); experiment: CDK family panel, ADP-Glo; format: biochemical
T13 construct: ICE Bioscience Inc. (assay service)
T13 sequence (Q9BWU1 whole entry, species assumed): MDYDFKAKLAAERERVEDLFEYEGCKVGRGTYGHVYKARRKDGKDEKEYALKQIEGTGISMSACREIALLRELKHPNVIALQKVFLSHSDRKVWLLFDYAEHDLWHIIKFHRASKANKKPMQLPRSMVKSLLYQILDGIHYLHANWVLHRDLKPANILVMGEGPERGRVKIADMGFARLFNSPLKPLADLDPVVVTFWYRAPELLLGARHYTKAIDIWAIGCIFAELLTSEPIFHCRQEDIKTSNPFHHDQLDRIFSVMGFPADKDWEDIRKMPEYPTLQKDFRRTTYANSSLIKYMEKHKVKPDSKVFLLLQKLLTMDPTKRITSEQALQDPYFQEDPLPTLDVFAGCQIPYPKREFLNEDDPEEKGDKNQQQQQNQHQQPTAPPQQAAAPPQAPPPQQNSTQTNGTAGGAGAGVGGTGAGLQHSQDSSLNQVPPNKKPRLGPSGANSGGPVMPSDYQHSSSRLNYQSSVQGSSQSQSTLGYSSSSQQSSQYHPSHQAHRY
T13 sequence (P24863 whole entry partner, species assumed): as the sequence (P24863 whole entry partner, species assumed) above
Method: as §3

[17] = target: T14, CDK8/CycC (Homo sapiens, UniProt P49336); experiment: CDK family panel, ADP-Glo; format: biochemical
T14 construct: ICE Bioscience Inc. (assay service)
Method: as §3

[18] = tested on: MDA-MD-468; experiment: Cell viability panel; format: cell-based; details: Homo sapiens, 120 h; breast cancer cells, 5 days of treatment
Method: as §1

[19] = tested on: SK-BR-3; experiment: Cell viability panel; format: cell-based; details: Homo sapiens, SK-BR-3, 120 h; breast cancer cells, 5 days of treatment
Method: as §1

[20] = tested on: DU145; experiment: Cell viability panel; format: cell-based; details: Homo sapiens, DU-145, 120 h; prostate cancer cells, 5 days of treatment
Method: as §1

[21] = tested on: MFM223; experiment: Cell viability panel; format: cell-based; details: Homo sapiens, MFM-223, 120 h; breast cancer cells, 5 days of treatment
Method: as §1

[22] = tested on: CHLA10; experiment: Cell viability panel; format: cell-based; details: Homo sapiens, 120 h; Ewing's sarcoma cells, 5 days of treatment
Method: as §1

[23] = tested on: CB-AGPN; experiment: Cell viability panel; format: cell-based; details: Homo sapiens, 120 h; Ewing's sarcoma cells, 5 days of treatment
Method: as §1

[24] = target: T15, TAOK3 (Homo sapiens, UniProt Q9H2K8); experiment: ADP-Glo assay, TAOK3; format: biochemical; details: read-out: IC50 against TAOK3
T15 construct: ICE Bioscience Inc. (assay service)
T15 sequence (Q9H2K8 whole entry, species assumed): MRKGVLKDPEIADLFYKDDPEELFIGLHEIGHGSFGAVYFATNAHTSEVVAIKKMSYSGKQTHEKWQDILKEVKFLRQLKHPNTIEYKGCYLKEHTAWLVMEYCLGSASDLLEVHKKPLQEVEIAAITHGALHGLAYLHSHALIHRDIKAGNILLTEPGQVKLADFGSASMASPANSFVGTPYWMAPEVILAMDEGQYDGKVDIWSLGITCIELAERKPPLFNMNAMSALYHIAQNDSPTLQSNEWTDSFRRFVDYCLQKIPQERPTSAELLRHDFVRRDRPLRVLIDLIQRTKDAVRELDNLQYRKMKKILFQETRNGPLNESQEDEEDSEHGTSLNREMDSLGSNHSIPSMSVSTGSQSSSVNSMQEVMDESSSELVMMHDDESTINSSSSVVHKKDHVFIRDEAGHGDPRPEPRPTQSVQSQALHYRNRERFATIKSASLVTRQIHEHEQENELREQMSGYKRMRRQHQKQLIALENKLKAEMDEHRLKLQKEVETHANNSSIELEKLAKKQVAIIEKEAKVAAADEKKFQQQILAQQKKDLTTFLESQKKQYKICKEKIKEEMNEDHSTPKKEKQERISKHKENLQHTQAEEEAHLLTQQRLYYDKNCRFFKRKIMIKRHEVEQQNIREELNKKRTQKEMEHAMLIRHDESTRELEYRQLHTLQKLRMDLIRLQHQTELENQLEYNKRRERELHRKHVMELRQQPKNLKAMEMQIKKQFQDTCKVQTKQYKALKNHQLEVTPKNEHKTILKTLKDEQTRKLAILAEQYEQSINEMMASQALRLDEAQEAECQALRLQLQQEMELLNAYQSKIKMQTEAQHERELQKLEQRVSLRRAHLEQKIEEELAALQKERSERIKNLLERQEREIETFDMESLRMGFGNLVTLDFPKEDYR

[25] = target: T16, CDK1/CycE1 (Homo sapiens, UniProt P06493); experiment: CDK family panel, ADP-Glo; format: biochemical
T16 construct: ICE Bioscience Inc. (assay service)
Method: as §3

[26] = target: T17, CDK16/CycY (Homo sapiens, UniProt Q00536); experiment: CDK family panel, ADP-Glo; format: biochemical
T17 construct: ICE Bioscience Inc. (assay service)
Method: as §3

[27] = tested on: VCaP cells; experiment: Cell apoptosis assay by flow cytometry; format: cell-based, human; details: YJZ5118 at 100 nM
Method: Cells were seeded in six-well plates and incubated for 24 h at 37 °C and 5% CO2. Cells were then treated with the indicated concentrations of the tested compounds for 48 h. The treated cells then were collected, centrifuged and washed twice by cold PBS. […] Cell samples were analyzed with flow cytometry (SH800S cell sorter, Sony Biotechnology).

[28] = target: T18, CDK4/CycD1 (Homo sapiens, UniProt P11802); experiment: CDK family panel, ADP-Glo; format: biochemical
T18 construct: ICE Bioscience Inc. (assay service)
Method: as §2

[29] = intravenous, i.v. 2.5 mg/kg (Table S5, intraperitoneal study)

Work on C=CC(=O)Nc1cc(N(C(=O)NCc2ccccc2)[C@H]2CC[C@H](Nc3ccc(C#N)cn3)CC2)ccc1N1CCC(N(C)C)CC1 [YJZ5118, N-(5-(3-benzyl-1-((1r,4r)-4-((5-cyanopyridin-2-yl)amino)cyclohexyl)ureido)-2-(4-(dimethylamino)piperidin-1-yl)phenyl)acrylamide] yielded an IC50 [1] greater than 10000 nM, an AUC(0-t) [2, 29] of 1660 ng·h/mL and a Cmax [2, 29] of 3310 ng/mL. The Tmax [2, 29] was 0.08 h, the clearance [2, 29] was 25.6 mL/min/kg and the half-life [2, 29] was 1.21 h. For the same compound, the bioavailability ([2]; ip, 2.5 mg/kg, i.p. 2.5 mg/kg, read-out: F) was 113%, the AUC(0-t) ([2]; ip, i.p. 2.5 mg/kg) was 1860 ng·h/mL and the Cmax ([2]; ip, i.p. 2.5 mg/kg) was 1580 ng/mL. The Tmax ([2]; ip, i.p. 2.5 mg/kg) was 0.33 h, the half-life ([2]; ip, i.p. 2.5 mg/kg) was 1.46 h and the clearance ([2]; iv, i.v. 2 mg/kg) was 28.3 mL/min/kg. For the same compound, the AUC(0-t) ([2]; iv, i.v. 2.5 mg/kg (Figure 3A)) was 1580 ng·h/mL, the Cmax ([2]; iv, i.v. 2.5 mg/kg (Figure 3A)) was 2810 ng/mL and the Tmax ([2]; iv, i.v. 2.5 mg/kg (Figure 3A)) was 0.08 h. For the same compound, the clearance ([2]; iv, i.v. 2.5 mg/kg (Figure 3A)) was 28.3 mL/min/kg, the half-life ([2]; iv, i.v. 2.5 mg/kg (Figure 3A)) was 1.29 h and the bioavailability ([2]; po, 10 mg/kg, p.o. 10 mg/kg, read-out: F (oral bioavailability)) was 35.5%. The AUC(0-t) ([2]; po, p.o. 10 mg/kg) was 2240 ng·h/mL, the Cmax ([2]; po, p.o. 10 mg/kg) was 639 ng/mL and the Tmax ([2]; po, p.o. 10 mg/kg) was 1.5 h. For the same compound, the half-life ([2]; po, p.o. 10 mg/kg) was 2.32 h, the “clearance rate, times lower than that of 14h” value ([2]; i.v.) was 4 time and the “F (oral bioavailability)” value ([2]; p.o. 10 mg/kg, 10 mg/kg) was 35.5%. For the same compound, the IC50 [3] was 2260 nM, the IC50 [4] was greater than 10000 nM and the IC50 ([5]; Homo sapiens, VCaP, 120 h) was less than 40 nM. For the same compound, the IC50 ([5]; listed as 14k (YJZ5118)) was 23.7 nM, the “cell growth inhibitory effect after washout” value [6] was “maintained potent antiproliferative activity” and the IC50 [7] was greater than 10000 nM. For the same compound, the IC50 [8] was greater than 10000 nM, the IC50 [9] was greater than 10000 nM and the IC50 [10] was greater than 10000 nM. The IC50 [11] was greater than 10000 nM, the IC50 [12] was 4480 nM and the IC50 [13] was greater than 10000 nM. It also gave an IC50 [14] greater than 10000 nM, an IC50 [15] of 4910 nM and an IC50 [16] greater than 10000 nM. The IC50 [17] was greater than 10000 nM, the IC50 [18] was less than 0.04 µM and the IC50 [19] was less than 0.04 µM. For the same compound, the IC50 [20] was less than 0.04 µM, the IC50 [21] was less than 0.04 µM and the IC50 [22] was less than 0.04 µM. It also gave an IC50 [23] of less than 0.04 µM, an IC50 [24] greater than 10 µM and an IC50 [25] greater than 10000 nM. It also gave an IC50 [26] greater than 10000 nM, an apoptosis rate [27] of 28.5% and an IC50 [28] of 3390 nM.
